US3979508A, “Compositions and methods therewith for penicillin hypersensitivity detection” (Kremers-Urban Company, priority 1975, dated 1976)
Several values for one entry are separate records, joined by “and”; a condition that tells them apart may be missing. Equal values may be shown once.

Legend:
[1] = tested on: penicillin hypersensitivity (patients); experiment: Clinical evaluation by 26 investigators: scratch/intradermal skin tests with PPL and Penicillin G (Tables IV-VII, IX-XI); format: in vivo, human; conditions: for TOTAL (+) No. / TOTAL (+) Percent of total positive: skin reactive penicillin allergy patients
Method: Twenty-six clinical investigators contributed a total of 1160 cases to the evaluation. Patients were tested according to a protocol as follows:
1. All patients being subjected to allergy investigation were to be tested for penicillin hypersensitivity. Two preparations were to be used. These are:
2. Penicillin G (Benzyl Penicillin) in a concentration of 10,000 units per cc.
For maximum safety, it was recommended that the tests first be done by the scratch technique. Intradermal tests were then to be done on those showing negative scratch tests. In cases where the penicillin sensitivity was suspected to be of a violent character, more dilute reagents were recommended at the discretion of the individual investigator.
A uniform technique was recommended for the performance of the intradermal tests. Only a minimal amount of testing reagent was to be injected so as to make a barely discernible intradermal bleb. The amount necessary for this injection is about 0.01 to 0.03 cc. It was recognized that the intrepretation of the test results is an important matter. The reactions were to be recorded in terms of (1) the time required for the appearance of a reaction, (2) the size of erythema and (3) the size of whealing. These were to be recorded as actual measurements. Some objective measurement of dermographism was also to be recorded.
It was also contemplated that all patients who were to be treated with penicillin be tested as recommended above, even though they had previously received penicillin with impunity.
A comprehensive clinical history was takan on each patient with particular regard to previous penicillin therapy, and reaction.
In order to properly analyze the data on such a large number of patients, a data processing system was utilized.
Table IV summarizes the skin test results on all patients, without regard to other specific factors. […] It will also be noted that a significant number of patients reacted only to PPL, and another group only to Pen G. Therefore, to detect the maximum number of reactors, both test reagents would be required. A technical problem was classification of the ambiguous or borderline reactors, particularly those showing only erythema. Attempts to correlate the appearance of the erythematous flare without wheal formation with a history of penicillin hypersensitivity were unsuccessful. In some instances, however, erythema without wheal did appear to be associated with hypersensitivity to the antibiotic. The time of development of erythema without wheal varied widely from a few minutes to more than 7 days which also made its importance questionable. as a diagnostic sign. For these reasons erythema alone responses were counted with the negatives. In some instances, however, data will be presented in which erythema without wheal are counted as positive responses (figures appearing in parentheses).

[2] = tested on: penicillin hypersensitivity (patients); experiment: Comparison of skin tests with penicilloyl-poly-L-lysine and penicillin G (Table III); format: in vivo, human; conditions: 1163 tested
Method: One of the uses for the conjugates of this invention is in skin testing for penicillin hypersensitivity. The conjugated compositions are prepared for skin testing by first dissolving the composition in buffered isotonic solutions, having a pH in the range from 7 to 8. For example, the conjugates prepared above may be diluted with aqueous solutions 0.15 M NaCl in 0.01 M phosphate, pH 7.6. In addition, other physiological salt solutions may be used.
Intradermal injections may be made of the foregoing solutions with a 26 guage needle, the volume injected may be generally about 0.01 to 0.03 cc. Alternatively, the conjugate may be applied by the scratch test technique. The development of a wheal at the injection site after about 20 minutes indicates a positive reaction, and penicillin hypersensitivity.
Penicillin hypersensitivity tests carried out with the conjugate compositions of this invention reflect the numerous advantages of penicillin hypersensitivity determinations made with such compositions. […] In Table II the distribution of skin reactions is shown by history of penicillin therapy and hypersensitivity. […] (See column 2, for example, showing the percentages of patients tested who had […] skin test.)

[3] = Group I (675 patients): penicillin Rx, no hypersensitivity, erythema only counted as negative
[4] = Group I (675 patients): penicillin Rx, no hypersensitivity, parentheses: erythema only (ambiguous) counted as positive
[5] = Group II (352 patients): penicillin Rx & hypersensitive, erythema only counted as negative
[6] = Group II (352 patients): penicillin Rx & hypersensitive, parentheses: erythema only (ambiguous) counted as positive
[7] = Group III (70 patients): no penicillin Rx in past, erythema only counted as negative
[8] = Group III (70 patients): no penicillin Rx in past, parentheses: erythema only (ambiguous) counted as positive
[9] = Group IV (56 patients): no data, erythema only counted as negative
[10] = Group IV (56 patients): no data, parentheses: erythema only (ambiguous) counted as positive
[11] = TOTALS (1153 patients), erythema only counted as negative
[12] = TOTALS (1153 patients), parentheses: erythema only (ambiguous) counted as positive
[13] = TOTALS, all patients (1153 tested), erythema only counted as negative
[14] = TOTALS, all patients (1153 tested), parentheses: erythema only (ambiguous) counted as positive
[15] = history of therapy: Multi Courses (177 tested)
[16] = history of therapy: One Course (249 tested)
[17] = history of therapy: One Dose (152 tested)
[18] = history of therapy: TOTALS (578 tested)
[19] = reason for testing: "Penicillin" (240 tested)
[20] = reason for testing: Other Substances (463 tested)
[21] = reaction between 30 minutes and 24 hours post therapy, erythema only counted as negative
[22] = reaction between 30 minutes and 24 hours post therapy, parentheses: erythema only (ambiguous) counted as positive
[23] = reaction more than 24 hours post therapy, erythema only counted as negative
[24] = reaction more than 24 hours post therapy, parentheses: erythema only (ambiguous) counted as positive
[25] = reaction within 30 minutes post therapy, erythema only counted as negative
[26] = reaction within 30 minutes post therapy, parentheses: erythema only (ambiguous) counted as positive
[27] = type of hypersensitivity reaction: Skin (309 tested)
[28] = type of hypersensitivity reaction: Visceral (43 tested)

## CC1(C)S[C@@H]2[C@H](NC(=O)Cc3ccccc3)C(=O)N2[C@H]1C(=O)O [PG, Benzyl Penicillin, reference compound]
[1]; [3]
  Skin Test (+) No.: 24
  Skin Test (+) Percent: 3.6%
  Skin Test (-) No.: 651
  Skin Test (-) Percent: 96.4%
[1]; [4]
  Skin Test (+) No.: 56
  Skin Test (+) Percent: 8.3%
  Skin Test (-) No.: 619
  Skin Test (-) Percent: 91.7%
[1]; [5]
  Skin Test (+) No.: 47
  Skin Test (+) Percent: 13.4%
  Skin Test (-) No.: 305
  Skin Test (-) Percent: 86.6%
[1]; [6]
  Skin Test (+) No.: 65
  Skin Test (+) Percent: 18.5%
  Skin Test (-) No.: 287
  Skin Test (-) Percent: 81.5%
[1]; [7]
  Skin Test (-) No.: 70
  Skin Test (-) Percent: 100.0%
[1]; [8]
  Skin Test (+) No.: 5
  Skin Test (+) Percent: 7.1%
  Skin Test (-) No.: 65
  Skin Test (-) Percent: 92.9%
[1]; [9]
  Skin Test (+) No.: 1
  Skin Test (+) Percent: 1.8%
  Skin Test (-) No.: 55
  Skin Test (-) Percent: 98.2%
[1]; [10]
  Skin Test (+) No.: 3
  Skin Test (+) Percent: 5.3%
  Skin Test (-) No.: 53
  Skin Test (-) Percent: 94.6%
[1]; No reactions (675 tested)
  SKIN TEST RESPONSE No.: 24
  SKIN TEST RESPONSE Percent: 3.6%
[1]; [11]
  Skin Test (-) No.: 1081
  Skin Test (-) Percent: 93.8%
[1]; [12]
  Skin Test (-) No.: 1024
  Skin Test (-) Percent: 88.8%
[1]; [13]
  Skin Test (+) No.: 72
  Skin Test (+) Percent: 6.2% and 6.3%
[1]; [14]
  Skin Test (+) No.: 129
  Skin Test (+) Percent: 11.2%
[1]; delayed (after 24 hours) group
  positive skin tests, patients positive/patients in group: 17/144
[1]; delayed (after 24 hours) group, 144 patients
  positive skin tests, percent of group: 11.8%
[1]; [15]
  Skin Reactions PPL- / PEN G- No.: 10
  Skin Reactions PPL- / PEN G- Percent: 5.6%
[1]; [16]
  Skin Reactions PPL- / PEN G- No.: 8
  Skin Reactions PPL- / PEN G- Percent: 3.2%
[1]; [17]
  Skin Reactions PPL- / PEN G- No.: 17
  Skin Reactions PPL- / PEN G- Percent: 11.2%
[1]; [18]
  Skin Reactions PPL- / PEN G- No.: 35
  Skin Reactions PPL- / PEN G- Percent: 6.1%
[1]; immediate reacting group (within 30 minutes)
  positive skin tests, patients positive/patients in group: 17/56
[1]; immediate reacting group (within 30 minutes), 56 patients
  positive skin tests, percent of group: 30.4%
[1]; immediate reactor group
  percent of skin-test positive patients that would be missed if only this reagent were used as skin test antigen: 45%
[1]; [19]
  Skin Test (+) No.: 24
  Skin Test (+) Percent: 10.0%
[1]; [20]
  Skin Test (+) No.: 9
  Skin Test (+) Percent: 1.9%
[1]; scratch and intradermal skin testing of patients
  safety of skin testing: safe
[1]; [21]
  TOTAL (+) No.: 17
  TOTAL (+) Percent of total positive: 65.4%
[1]; [22]
  TOTAL (+) No.: 21
  TOTAL (+) Percent of total positive: 67.7%
[1]; [23]
  TOTAL (+) No.: 17
  TOTAL (+) Percent of total positive: 51.5%
[1]; reaction more than 24 hours post therapy, erythema only counted as negative, listed as Penicillin G
  TOTAL (+) Percent of total positive: ≤ 51.5%
[1]; [24]
  TOTAL (+) No.: 22
  TOTAL (+) Percent of total positive: 50.0%
[1]; [25]
  TOTAL (+) No.: 17
  TOTAL (+) Percent of total positive: 54.8%
[1]; reaction within 30 minutes post therapy, erythema only counted as negative, listed as Pen G
  TOTAL (+) Percent of total positive: 55%
[1]; reaction within 30 minutes post therapy, erythema only counted as negative, listed as Penicillin G
  TOTAL (+) Percent of total positive: 54.8%
[1]; [26]
  TOTAL (+) No.: 17
  TOTAL (+) Percent of total positive: 47.2%
[1]; [27]
  SKIN TEST RESPONSE No.: 39
  SKIN TEST RESPONSE Percent: 12.6%
[1]; [28]
  SKIN TEST RESPONSE No.: 14
  SKIN TEST RESPONSE Percent: 32.6%
[2]
  POSITIVE SKIN TESTS %: 14.3%
  Positive Skin Tests, Number of Patients: 166
